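Cultured in 96-well plates, cells were exposed to test compound for 48 hours across five concentrations. GI50 = concentration required for 50% inhibition of growth.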 Activity calls are given as the source filed them. Rule as the data show it: active = GI50 up to about 1.1 µM and inactive = higher.
Columns and labels:
Assay in all cases: inhibition of tumour cell growth, NCI panel, 48 h
CAKI-1 = test system: CAKI-1
UO-31 = test system: UO-31
BT-549 = test system: BT-549
SF-295 = test system: SF-295
PC-3 = test system: PC-3
K562 = test system: K562
SW-620 = test system: SW-620
T47D = test system: T47D
SR = test system: SR
U-251 = test system: U-251
IGROV-1 = test system: IGROV-1
SNB-75 = test system: SNB-75
COLO 205 = test system: COLO 205
NCI-H522 = test system: NCI-H522
MDA-N = test system: MDA-N
SF-268 = test system: SF-268
SNB-19 = test system: SNB-19
MDA-MB-231 = test system: MDA-MB-231
MCF7 = test system: MCF7
HL-60 = test system: HL-60

Row | SMILES | GI50 (CAKI-1) | GI50 (UO-31) | GI50 (BT-549) | GI50 (SF-295) | GI50 (PC-3) | GI50 (K562) | GI50 (SW-620) | GI50 (T47D) | GI50 (SR) | GI50 (U-251) | GI50 (IGROV-1) | GI50 (SNB-75) | GI50 (COLO 205) | GI50 (NCI-H522) | GI50 (MDA-N) | GI50 (SF-268) | GI50 (SNB-19) | GI50 (MDA-MB-231) | GI50 (MCF7) | GI50 (HL-60)
1 | NCCCC[C@H](N)C(=O)Nc1ccc(-c2nc3ccccc3s2)cc1 | 37.9 µM (inactive) | 12.7 µM (inactive) | 28.6 µM (inactive) | 15.7 µM (inactive) | 25.6 µM (inactive) | 19.6 µM (inactive) | 16.9 µM (inactive) | 33.7 µM (inactive) | 18.4 µM (inactive) | 14.3 µM (inactive) | 16.7 µM (inactive) | 16.8 µM (inactive) | 18.7 µM (inactive) | 17 µM (inactive) | 15.7 µM (inactive) | 23.2 µM (inactive) | 16.7 µM (inactive) | 15.1 µM (inactive) |  | 
2 | Nc1ccn(C2CCC(COP(=O)(O)OCC(O)COP(=O)(O)OCC3OC(n4cc(F)c(=O)[nH]c4=O)CC3O)O2)c(=O)n1 (stereo unspecified) | 0.316 µM (active) | 0.0622 µM (active) | 3.09 µM (inactive) | 0.0459 µM (active) | 2.01 µM (inactive) | 2.61 µM (inactive) | > 100 µM (inactive) | 1.42 µM (inactive) |  | 1.04 µM (active) | 11.2 µM (inactive) | 3.54 µM (inactive) | 8.3 µM (inactive) | 0.628 µM (active) | 8.34 µM (inactive) | 0.0101 µM (active) | 0.211 µM (active) | 44.1 µM (inactive) | < 0.01 µM (active) | 0.0716 µM (active)
3 | CCC(=O)OC1CCn2c1nc1c2C(=O)C(C)=C(N2CC2)C1=O (stereo unspecified) | 0.0509 µM (active) | 0.0698 µM (active) | 0.0546 µM (active) | 0.0728 µM (active) | 0.105 µM (active) |  | 0.0488 µM (active) | 1.6 µM (inactive) |  | 0.0371 µM (active) | 0.482 µM (active) | 0.0301 µM (active) | 0.199 µM (active) | 0.0361 µM (active) | 0.043 µM (active) | 0.0755 µM (active) | 0.0989 µM (active) | 1.42 µM (inactive) | 0.00637 µM (active) | 0.35 µM (active)
4 | O=S(=O)(/N=S(/Nc1ccccc1)C(Cl)Cl)c1ccccc1 (stereo unspecified) |  | > 100 µM (inactive) | > 100 µM (inactive) | > 100 µM (inactive) | > 100 µM (inactive) | > 100 µM (inactive) | > 100 µM (inactive) | > 100 µM (inactive) |  | > 100 µM (inactive) | > 100 µM (inactive) | > 100 µM (inactive) | > 100 µM (inactive) |  | > 100 µM (inactive) | > 100 µM (inactive) | > 100 µM (inactive) | > 100 µM (inactive) | > 100 µM (inactive) | > 100 µM (inactive)
5 | CCCCc1ccc(Nc2nc(OC)c3ncn(C4CC(O)C(CO)O4)c3n2)cc1 (stereo unspecified) | 1.85 µM (inactive) | 19.2 µM (inactive) | 18.9 µM (inactive) | 18.5 µM (inactive) | 18.1 µM (inactive) | 6.15 µM (inactive) | 19.7 µM (inactive) | 18.9 µM (inactive) |  | 20.7 µM (inactive) | 12.5 µM (inactive) | 18 µM (inactive) | 14.2 µM (inactive) | 1.86 µM (inactive) | 15.5 µM (inactive) | 16.6 µM (inactive) | 19.2 µM (inactive) | 17.7 µM (inactive) | 14.2 µM (inactive) | 2.05 µM (inactive)

From ChEMBL document CHEMBL1201862, “PubChem BioAssay data set” (2004)
